Where “and” joins values, the source holds several entries; their conditions need not be identical. Equal values may be shown once. Read-outs that look alike come from different tables or passages of the source.
Columns and labels:
DENV-2 RL strain [1] = assay: Antiviral assay, viral RNA RT-qPCR, C6/36 cells; format: cell-based
[2] = ATPLite cell viability assay; format: cell-based, African green monkey; conditions: African green monkey, Vero cells
Protocol: (§1) In parallel, the toxicity was measured using an ATPLite cell viability luminescence assay (PerkinElmer). The assays were performed in three different cell types (Vero, Huh-7 and THP-1/DC-SIGN) as described in ref. [3] to exclude cell-specific activity of the compound.

Vero cells = assay: ATPLite cell viability assay; format: cell-based, African green monkey; conditions: individual experiments, listed as 64281802-AAA
Protocol: as §1

[3] = system: DENV-2 Asian II Papua New Guinea; assay: microbe, parasite or virus in culture; format: cell-based; conditions: Dengue virus, DENV2, Vero C1008
Protocol: (§2) A total of 20 DENV strains, representing the available genotypes within the four DENV serotypes, were used in the in vitro genotype panel, from which 19 viruses were described previously in ref. [3] and one additional virus, DENV-1/45AZ5 (ref. [54]), was added.
(§3) A potential toxic effect on host cells was tested in parallel, while omitting virus infection, using the MTS/PMS method (Promega) for Vero cells, or by high-content imaging for C6/36 cells, as described previously. […] RT–qPCR data were analysed using the QuantStudio 12K Flex software (v.1.2.3) or SDS v.1.2 Applied Biosystems software. Inhibition values for antiviral molecules were plotted using KaleidaGraph plotting software (v.4.03, Synergy Software).

[4] = system: DENV-2 Cosmopolitan France - Toulon; assay: microbe, parasite or virus in culture; format: cell-based; conditions: Dengue virus, DENV2, Vero C1008
Protocol: as §2, §3

DENV-4 G1 India = assay: microbe, parasite or virus in culture; format: cell-based; conditions: Dengue virus, DENV4, Vero C1008
Protocol: as §2, §3

DENV-3 G5 Brazil = format: cell-based; conditions: T108A in NS4B
ZIKV H/PF/2013 = assay: microbe, parasite or virus in culture; format: cell-based; conditions: Zika virus, Vero C1008
DENV-2 RL strain [5] = assay: Delayed-treatment study (therapeutic setting); format: in vivo, AG129 mice; conditions: 30 mg/kg/day, individual mice
[6] = two of three values below threshold
[7] = start treatment day 0 p.i., blood sampling day 3 p.i.
[8] = start treatment day 0 p.i., blood sampling day 4 p.i.
[9] = start treatment day 0 p.i., blood sampling day 5 p.i.
[10] = start treatment day 0 p.i., blood sampling day 6 p.i.
[11] = start treatment day 0 p.i., blood sampling day 7 p.i.
[12] = start treatment day 0 p.i., blood sampling day 8 p.i.
[13] = start treatment day 0 p.i., blood sampling day 9 p.i.
[14] = start treatment day 4 p.i., blood sampling day 3 p.i.
[15] = start treatment day 4 p.i., blood sampling day 4 p.i.
[16] = start treatment day 4 p.i., blood sampling day 5 p.i.

## COc1cc(N[C@H](C(=O)c2c[nH]c3ccc(OC(F)(F)F)cc23)c2ccc(Cl)cc2OC)cc(S(C)(=O)=O)c1 [JNJ-1802]
DENV-2 RL strain [1]; C3/36 cells, DENV-2RL, EXP 1 and EXP 2, read-out: EC50, individual values
  EC50: 1.34 nM and 1.19 nM and 1.38 nM
DENV-2 RL strain [1]; C3/36 cells, DENV-2RL, EXP 1 and EXP 2, read-out: EC90, individual values
  EC90: 7.33 nM and 7.51 nM and 5.46 nM
DENV-2 RL strain [1]; Dengue virus, DENV2, C6/36, C3/36 cells, DENV-2RL, EXP 1 and EXP 2, read-out: EC50, individual values
  EC50: 1.05 nM
DENV-2 RL strain [1]; Dengue virus, DENV2, C6/36, C3/36 cells, DENV-2RL, EXP 1 and EXP 2, read-out: EC90, individual values
  EC90: 5.52 nM
DENV-2 RL strain [1]; Dengue virus, DENV2, C6/36, C3/36 cells, DENV-2RL, mean, read-out: EC50 Mean
  EC50: 1.2 nM
DENV-2 RL strain [1]; Dengue virus, DENV2, C6/36, C3/36 cells, DENV-2RL, mean, read-out: EC90 Mean
  EC90: 6.46 nM
DENV-2 RL strain [1]; Dengue virus, DENV2, C6/36, C6/36, read-out: EC50
  EC50: 1.24 ± 0.14 nM
DENV-2 RL strain [1]; Dengue virus, DENV2, C6/36, C6/36, read-out: EC90
  EC90: 6.5 ± 1 nM
[2]; TOX d4 preseeding, individual experiments
  CC50 at 4 d: 3040 nM
[2]; Vero
  CC50: 2610 ± 470 nM
[2]; Vero with 50% HS
  CC50: > 1500 nM
Vero cells; Vero cells in presence of 50% HS
  CC50: > 2500 nM
Vero cells; Vero cells, TOX d4 preseeding
  CC50: 3080 nM and 2400 nM and 2780 nM and 3520 nM and 2200 nM and 2320 nM and 2270 nM and 2310 nM and 2180 nM
[3]
  EC90: 0.19 ± 0.1 nM
[3]; two of two values below threshold
  EC50: < 0.04 nM
[4]; one of three values below threshold
  EC90: 0.28 nM
[4]; [6]
  EC50: < 0.0443 nM
DENV-4 G1 India
  EC90: 0.762 ± 0.095 nM
DENV-4 G1 India; [6]
  EC50: < 0.09 nM
DENV-3 G5 Brazil
  EC50: 1.8 ± 1.4 nM
  EC90: 3.8 ± 1.1 nM
ZIKV H/PF/2013
  EC50: 1100 nM
DENV-2 RL strain [5]; [7]
  Viral Load Copies/ml: 1.31E+03 Copies/ml and 3.02E+03 Copies/ml
  Viral Load Log10: 3.1316 Log10 and 3.1169 Log10 and 3.4801 Log10
DENV-2 RL strain [5]; [8]
  Viral Load Copies/ml: 1.31E+04 Copies/ml and 1.96E+04 Copies/ml and 3.27E+03 Copies/ml and 2.07E+03 Copies/ml
  Viral Load Log10: 4.1169 Log10 and 4.2930 Log10 and 3.5148 Log10 and 3.3153 Log10
DENV-2 RL strain [5]; [9]
  Viral Load Copies/ml: 4.36E+03 Copies/ml and 3.27E+03 Copies/ml and 3.93E+03 Copies/ml
  Viral Load Log10: 3.6398 Log10 and 3.5148 Log10 and 3.5940 Log10
DENV-2 RL strain [5]; [10]
  Viral Load Copies/ml: 1.31E+03 Copies/ml and 2.07E+03 Copies/ml and 5.61E+03 Copies/ml
  Viral Load Log10: 3.1169 Log10 and 3.3153 Log10 and 3.7489 Log10
DENV-2 RL strain [5]; [11]
  Viral Load Copies/ml: 1.57E+03 Copies/ml and 1.64E+03 Copies/ml and 6.54E+03 Copies/ml and 9.82E+03 Copies/ml
  Viral Load Log10: 3.8159 Log10 and 3.9919 Log10
DENV-2 RL strain [5]; [12]
  Viral Load Copies/ml: 6.54E+03 Copies/ml and 1.96E+04 Copies/ml and 3.27E+03 Copies/ml
  Viral Load Log10: 3.8159 Log10 and 4.2930 Log10 and 3.5148 Log10
DENV-2 RL strain [5]; [13]
  Viral Load Copies/ml: 1.31E+03 Copies/ml and 1.64E+03 Copies/ml
  Viral Load Log10: 3.1169 Log10
DENV-2 RL strain [5]; [14]
  Viral Load Copies/ml: 1.96E+04 Copies/ml and 8.52E+04 Copies/ml and 2.38E+05 Copies/ml and 1.40E+06 Copies/ml
  Viral Load Log10: 4.2930 Log10 and 4.9304 Log10 and 5.3771 Log10 and 6.1456 Log10
DENV-2 RL strain [5]; [15]
  Viral Load Copies/ml: 5.13E+06 Copies/ml and 8.56E+06 Copies/ml and 1.09E+07 Copies/ml and 3.84E+06 Copies/ml
  Viral Load Log10: 6.7101 Log10 and 6.9324 Log10 and 7.0387 Log10 and 6.5839 Log10
DENV-2 RL strain [5]; [16]
  Viral Load Copies/ml: 1.69E+05 Copies/ml and 1.30E+06 Copies/ml and 9.49E+05 Copies/ml and 2.98E+05 Copies/ml
  Viral Load Log10: 5.8093 Log10 and 5.2288 Log10 and 6.1145 Log10 and 5.9771 Log10 and 5.4737 Log10
DENV-2 RL strain [5]; start treatment day 4 p.i., blood sampling day 6 p.i.
  Viral Load Copies/ml: 1.31E+03 Copies/ml and 2.07E+03 Copies/ml and 3.65E+04 Copies/ml and 6.54E+03 Copies/ml

Source: article PMC10033419, “Blocking NS3–NS4B interaction inhibits dengue virus in non-human primates” (Nature, 2023)
